{"source": "patent US6352836B1", "about": "(priority 1997, dated 2002)", "target": "PHIS-PDiTPx2235 (Dirofilaria immitis, UniProt O17433)", "sequence (O17433 whole entry, looked up)": "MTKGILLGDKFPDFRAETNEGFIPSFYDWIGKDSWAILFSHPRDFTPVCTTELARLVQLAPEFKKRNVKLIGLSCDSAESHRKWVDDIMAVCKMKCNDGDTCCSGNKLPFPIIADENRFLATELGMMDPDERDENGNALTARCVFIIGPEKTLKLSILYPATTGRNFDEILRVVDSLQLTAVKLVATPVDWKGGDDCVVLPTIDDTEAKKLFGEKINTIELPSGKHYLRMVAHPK", "assay_type": "biochemical, D. immitis", "conditions": "for Percent protection (Mean ± SD): PHIS-PDiTPx2235 0.75 mg/ml, DTT 10 mM", "note": "Where two headings read alike, the source gives them in different places.", "data": [{"smiles": "CCN1C(=O)C=CC1=O", "note": "[NEM, N-ethylmaleimide]", "values": [{"measurement": "Percent protection (Mean ± SD)", "setting": "NEM 0.1 mM", "value": "97.3 ± 2.40", "unit": "%"}, {"measurement": "Percent protection (Mean ± SD)", "setting": "NEM 1.0 mM", "value": "76.7 ± 1.13", "unit": "%"}, {"measurement": "Percent protection (Mean ± SD)", "setting": "NEM 2.0 mM", "value": "77.9 ± 1.87", "unit": "%"}, {"measurement": "Percent protection (Mean ± SD)", "setting": "NEM 4.0 mM", "value": "58.4 ± 1.57", "unit": "%"}, {"measurement": "Percent protection (Mean ± SD)", "setting": "NEM 8.0 mM", "value": "21.1 ± 0.33", "unit": "%"}, {"measurement": "Percent protection (Mean ± SD)", "setting": "NEM 16.0 mM", "value": "0.0 ± 0.0", "unit": "%"}, {"measurement": "Percent protection (Mean ± SD)", "setting": "NEM 32.0 mM", "value": "0.0 ± 0.0", "unit": "%"}, {"measurement": "inhibition of H2O2 removal by PHIS-PDiTPx2235", "setting": "inhibition concentration dependent (Table 5)", "value": "prevented PHIS-PDiTPx2235 from removing H2O2"}]}]}
